Results on 18 compounds are retold here after US11786471B2, “Complex disintegrant system for oral solid preparation and oral solid preparation comprising said complex disintegrant system” (WUHAN LL SCIENCE AND TECHNOLOGY DEVELOPMENT CO., LTD., priority 2016, dated 2023).

The structures appear in SMILES notation.

Assay [1] deals with spontaneously hypertensive rats. Briefly: Heart rate change in spontaneously hypertensive rats. In kind it is in vivo, rat. Conditions: SHR; for heart rate lowering effect compared with the corresponding unsalted compound: oral administration, result in words; for Heart rate change, 1 hour after administration (average ± standard error) / Heart rate change, 3 hours after administration (average ± standard error) / Heart rate change, 5 hours after administration (average ± standard error) / Heart rate change, 7 hours after administration (average ± standard error) / Heart rate change, 10 hours after administration (average ± standard error) / Heart rate change, 24 hours after administration (average ± standard error): intragastric, 1 mg/kg (calculated by effective dose of Azilsartan), relative to before administration. The procedure:
(§1) 12-week-old spontaneously hypertensive rats (hereinafter referred to as SHR, purchased from Beijing Weitong Lihua Experimental Animal Technology Co., Ltd.) were anesthetized with 2.5% sodium pentobarbital for intraperitoneal injection. After that, the blood pressure sensing catheter of hypertension implant was inserted into their abdominal aorta, while the implant was fixed to the abdominal wall, and then postoperative daily care was performed after suturing. Rats with systolic blood pressure exceeding 160 mm Hg were divided into 3 groups (control group, QR01019 group and QR01019K group) wherein each group has 8 rats. The control group was administrated 0.5% sodium carboxymethylcellulose (hereinafter referred to as CMC-Na); QR01019 group and QR01019K group were respectively administered, both of which were dissolved by 0.5% CMC-Na, by intragastric administration, at a dose of 1 mg/kg (calculated by the effective dose of Azilsartan) and a volume calculated by 4 mL/kg. The systolic blood pressure and heart rate of SHR were compared before and after administration (the systolic blood pressure and heart rate of SHR before administration as reference value), which were detected three times at each time point with the average value recorded.

For assay [2] the test system is unchanged. Briefly: Antihypertensive efficacy test in spontaneously hypertensive rats: systolic blood pressure change. Conditions: SHR; for antihypertensive effect compared with the corresponding unsalted compound: oral administration; for antihypertensive effect compared with the corresponding unsalted compound / systolic blood pressure compared with the control group: result in words; for systolic blood pressure compared with the control group: after 3 hours of administration; for Systolic blood pressure change, 1 hour after administration (average ± standard error) / Systolic blood pressure change, 3 hours after administration (average ± standard error) / Systolic blood pressure change, 5 hours after administration (average ± standard error) / Systolic blood pressure change, 7 hours after administration (average ± standard error) / Systolic blood pressure change, 10 hours after administration (average ± standard error) / Systolic blood pressure change, 24 hours after administration (average ± standard error): intragastric, 1 mg/kg (calculated by effective dose of Azilsartan), relative to before administration. It is filed as in vivo, rat. The method, then:
as §1

Turning to `CCOc1nc2cccc(C(=O)OCOC(=O)OCc3no[n+]([O-])c3C)c2n1Cc1ccc(-c2ccccc2-c2noc(=O)[n-]2)cc1.[K+]` [QR01020K], in assay [1], the “heart rate lowering effect compared with the corresponding unsalted compound” value was “more potent and longer-lasting”. Further, in assay [2], the “antihypertensive effect compared with the corresponding unsalted compound” value was “more potent and longer-lasting”.

As for `CCOc1nc2cccc(C(=O)OCCCCO[N+](=O)[O-])c2n1Cc1ccc(-c2ccccc2-c2noc(=O)[n-]2)cc1.[K+]` [QR01008K], the “heart rate lowering effect compared with the corresponding unsalted compound” value in assay [1] is “more potent and longer-lasting”. Further, the “antihypertensive effect compared with the corresponding unsalted compound” value in assay [2] was “more potent and longer-lasting”.

With `CCOc1nc2cccc(C(=O)OC(C)OC(=O)OCc3ccn(C)c3)c2n1Cc1ccc(-c2ccccc2-c2noc(=O)[n-]2)cc1.[K+]` (stereo not drawn) [QR01033K], the “heart rate lowering effect compared with the corresponding unsalted compound” value in assay [1] is “more potent and longer-lasting”. Further, the “antihypertensive effect compared with the corresponding unsalted compound” value in assay [2] is “more potent and longer-lasting”.

Regarding `CCOc1nc2cccc(C(=O)OCc3no[n+]([O-])c3C(C)(C)C)c2n1Cc1ccc(-c2ccccc2-c2noc(=O)[n-]2)cc1.[K+]` [QR01026K], the “heart rate lowering effect compared with the corresponding unsalted compound” value in assay [1] is “more potent and longer-lasting”. Besides, the “antihypertensive effect compared with the corresponding unsalted compound” value in assay [2] is “more potent and longer-lasting”.

Turning to `CCOc1nc2cccc(C(=O)OCCCCOc3no[n+]([O-])c3S(=O)(=O)c3ccccc3)c2n1Cc1ccc(-c2ccccc2-c2noc(=O)[n-]2)cc1.[K+]` [QR01011K], in assay [1], the “heart rate lowering effect compared with the corresponding unsalted compound” value was “more potent and longer-lasting”. Further, the “antihypertensive effect compared with the corresponding unsalted compound” value in assay [2] is “more potent and longer-lasting”.

In the case of `CCOc1nc2cccc(C(=O)OCc3oc(=S)oc3C)c2n1Cc1ccc(-c2ccccc2-c2noc(=O)[n-]2)cc1.[K+]` [QR01013K], the “heart rate lowering effect compared with the corresponding unsalted compound” value in assay [1] is “more potent and longer-lasting”. In assay [2], the “antihypertensive effect compared with the corresponding unsalted compound” value is “more potent and longer-lasting”.

In the case of `CCOc1nc2cccc(C(=O)OC(C)OC(=O)OCc3nc(C)c(C)nc3C)c2n1Cc1ccc(-c2ccccc2-c2noc(=O)[n-]2)cc1.[K+]` (stereo not drawn) [QR01019K], in assay [1], the “Heart rate change, 1 hour after administration (average ± standard error)” value is recorded as −3.6 ± 2.4 times/minute; the “Heart rate change, 3 hours after administration (average ± standard error)” value is listed as −5.0 ± 2.5 times/minute; the “Heart rate change, 5 hours after administration (average ± standard error)” value is −10.1 ± 3.0 times/minute; the “Heart rate change, 7 hours after administration (average ± standard error)” value is given as −17.5 ± 3.0 times/minute. Besides, in assay [1], the “Heart rate change, 10 hours after administration (average ± standard error)” value was −25.4 ± 2.4 times/minute; the “Heart rate change, 24 hours after administration (average ± standard error)” value was −28.6 ± 8 times/minute; the “heart rate lowering effect compared with the corresponding unsalted compound” value is “more potent with a longer-lasting heart rate lowing effect”. Moreover, in assay [2], the “systolic blood pressure compared with the control group” value is on record as “significantly decreased”; the “Systolic blood pressure change, 1 hour after administration (average ± standard error)” value was −7.0 ± 3.4 mmHg; the “Systolic blood pressure change, 3 hours after administration (average ± standard error)” value is given as −34.3 ± 1.9 mmHg; the “Systolic blood pressure change, 5 hours after administration (average ± standard error)” value is on record as −46.5 ± 2.5 mmHg. Further, in assay [2], the “Systolic blood pressure change, 7 hours after administration (average ± standard error)” value is recorded as −49.4 ± 4.1 mmHg; the “Systolic blood pressure change, 10 hours after administration (average ± standard error)” value is recorded as −45.3 ± 3.3 mmHg; the “Systolic blood pressure change, 24 hours after administration (average ± standard error)” value was −25.9 ± 3.4 mmHg; the “antihypertensive effect compared with the corresponding unsalted compound” value was “more potent with a longer-lasting antihypertensive effect”.

In the case of `CCOc1nc2cccc(C(=O)OCc3c(-c4ccccc4)no[n+]3[O-])c2n1Cc1ccc(-c2ccccc2-c2noc(=O)[n-]2)cc1.[K+]` [QR01009K], the “heart rate lowering effect compared with the corresponding unsalted compound” value in assay [1] was “more potent and longer-lasting”. In assay [2], the “antihypertensive effect compared with the corresponding unsalted compound” value was “more potent and longer-lasting”.

In the case of `CCOc1nc2cccc(C(=O)OCOC(=O)C(C)(C)C)c2n1Cc1ccc(-c2ccccc2-c2noc(=O)[n-]2)cc1.[K+]` [QR01005K], in assay [1], the “heart rate lowering effect compared with the corresponding unsalted compound” value is “more potent and longer-lasting”. Also, the “antihypertensive effect compared with the corresponding unsalted compound” value in assay [2] was “more potent and longer-lasting”.

With `CCOc1nc2cccc(C(=O)OC3CCc4c3no[n+]4[O-])c2n1Cc1ccc(-c2ccccc2-c2noc(=O)[n-]2)cc1.[K+]` (stereo not drawn) [QR01035K], in assay [1], the “heart rate lowering effect compared with the corresponding unsalted compound” value was “more potent and longer-lasting”. Also, in assay [2], the “antihypertensive effect compared with the corresponding unsalted compound” value was “more potent and longer-lasting”.

On to `CCOc1nc2cccc(C(=O)OCOC(=O)OCc3cn(C)cn3)c2n1Cc1ccc(-c2ccccc2-c2noc(=O)[n-]2)cc1.[K+]` [QR01031K], for which, in assay [1], the “heart rate lowering effect compared with the corresponding unsalted compound” value is “more potent and longer-lasting”. Also, the “antihypertensive effect compared with the corresponding unsalted compound” value in assay [2] is “more potent and longer-lasting”.

In the case of `CCOc1nc2cccc(C(=O)OCc3no[n+]([O-])c3C#N)c2n1Cc1ccc(-c2ccccc2-c2noc(=O)[n-]2)cc1.[K+]` [QR01036K], the “heart rate lowering effect compared with the corresponding unsalted compound” value in assay [1] was “more potent and longer-lasting”. In assay [2], the “antihypertensive effect compared with the corresponding unsalted compound” value was “more potent and longer-lasting”.

In the case of `CCOc1nc2cccc(C(=O)OCc3no[n+]([O-])c3CO[N+](=O)[O-])c2n1Cc1ccc(-c2ccccc2-c2noc(=O)[n-]2)cc1.[K+]` [QR01034K], the “heart rate lowering effect compared with the corresponding unsalted compound” value in assay [1] was “more potent and longer-lasting”. Also, the “antihypertensive effect compared with the corresponding unsalted compound” value in assay [2] is “more potent and longer-lasting”.

Turning to `CCOc1nc2cccc(C(=O)OCOC(=O)OCc3ccn(C)c3)c2n1Cc1ccc(-c2ccccc2-c2noc(=O)[n-]2)cc1.[K+]` [QR01032K], the “heart rate lowering effect compared with the corresponding unsalted compound” value in assay [1] was “more potent and longer-lasting”. Further, the “antihypertensive effect compared with the corresponding unsalted compound” value in assay [2] is “more potent and longer-lasting”.

In the case of `CCOc1nc2cccc(C(=O)OCc3no[n+]([O-])c3C)c2n1Cc1ccc(-c2ccccc2-c2noc(=O)[n-]2)cc1.[K+]` [QR01023K], in assay [1], the “heart rate lowering effect compared with the corresponding unsalted compound” value is “more potent and longer-lasting”. Moreover, the “antihypertensive effect compared with the corresponding unsalted compound” value in assay [2] was “more potent and longer-lasting”.

`CCOc1nc2cccc(C(=O)OCOC(=O)OCc3nc(C)c(C)nc3C)c2n1Cc1ccc(-c2ccccc2-c2noc(=O)[n-]2)cc1.[K+]` [QR01017K]: in assay [1], the “heart rate lowering effect compared with the corresponding unsalted compound” value was “more potent and longer-lasting”. The “antihypertensive effect compared with the corresponding unsalted compound” value in assay [2] was “more potent and longer-lasting”.

As to `CCOc1nc2cccc(C(=O)OC(C)OC(=O)OCc3nc(C)c(C)nc3C)c2n1Cc1ccc(-c2ccccc2-c2noc(=O)[nH]2)cc1` (stereo not drawn) [QR01019], in assay [1], the “Heart rate change, 1 hour after administration (average ± standard error)” value is recorded as −3.4 ± 2.6 times/minute; the “Heart rate change, 3 hours after administration (average ± standard error)” value was −2.33 ± 2.6 times/minute; the “Heart rate change, 5 hours after administration (average ± standard error)” value is reported as −6.5 ± 2.8 times/minute; the “Heart rate change, 7 hours after administration (average ± standard error)” value is −6.2 ± 3.0 times/minute. In addition, in assay [1], the “Heart rate change, 10 hours after administration (average ± standard error)” value is given as −12.3 ± 2.8 times/minute and the “Heart rate change, 24 hours after administration (average ± standard error)” value is given as −6.7 ± 2.6 times/minute. In assay [2], the “systolic blood pressure compared with the control group” value was “significantly decreased”; the “Systolic blood pressure change, 1 hour after administration (average ± standard error)” value is −4.9 ± 4.8 mmHg; the “Systolic blood pressure change, 3 hours after administration (average ± standard error)” value is −22.0 ± 3.6 mmHg; the “Systolic blood pressure change, 5 hours after administration (average ± standard error)” value is given as −30.5 ± 3.5 mmHg. Further, in assay [2], the “Systolic blood pressure change, 7 hours after administration (average ± standard error)” value is on record as −38.8 ± 2.3 mmHg; the “Systolic blood pressure change, 10 hours after administration (average ± standard error)” value is listed as −33.0 ± 1.7 mmHg; the “Systolic blood pressure change, 24 hours after administration (average ± standard error)” value is −10.2 ± 2.1 mmHg.

Take `CCOc1nc2cccc(C(=O)OCOC(=O)OCc3ccno3)c2n1Cc1ccc(-c2ccccc2-c2noc(=O)[n-]2)cc1.[K+]` [QR01030K]: the “heart rate lowering effect compared with the corresponding unsalted compound” value in assay [1] is “more potent and longer-lasting”. Moreover, the “antihypertensive effect compared with the corresponding unsalted compound” value in assay [2] was “more potent and longer-lasting”.
